From patent US12281328B2, “Photoreceptor cells for the treatment of retinal diseases” (Hadasit Medical Research Services and Development Ltd., priority 2017, dated 2025)

Test system: hESC-derived spheroid bodies (SBs), HAD-C102
Test: Real-time PCR of eye field, retinal progenitor and photoreceptor progenitor markers in SBs cultured with factor combinations
Assay type: cell-based, human
Description: SBs were generated under non-adherent conditions (day 0) from cord-feeder-conditioned media culture systems, or from feeder free laminin 521 culture systems, as described above. SBs were cultured in the following medium: […]® minus medium (Biological industries, Beit Haemek, Israel) supplemented with 50 U/ml penicillin and 50 μg/ml streptomycin (Gibco-BRL, Carlsbad, Calif.). In the initial 0 to 6 days of SBs culture (under non-adherent conditions), the medium was supplemented with 10 mM nicotinamide (Sigma, St. Louis, Mo.). It was further supplemented with the addition of the following factors in different combinations: 10 mM nicotinamide (Sigma, St. Louis, Mo.), 3 μM endo-IWR 1 (IWR1e; TOCRIS, a biotechne brand, Minneapolis, Minn.), 20 ng/ml bFGF (PeproTech Inc., Rocky Hill, N.J.), 5 ng/ml IGF1 (R&D Systems Inc., Minneapolis, Minn.) and 3 μM CHIR99021 (CHIR; PeproTech Inc., Rocky Hill, N.J.).
Real-time PCR was used to determine the expression of eye field and retinal progenitor markers and photoreceptor progenitor markers. mRNA was extracted using QUICK-RNA Micro Prep, Zymo Research (Cat #R1051) and the RT reaction was accomplished with QSCRIPT™ reverse transcriptase (Quanta BioScience Inc., Gaithersburg, Md.). The levels of transcripts were monitored using commercially available TAQMAN™ Assay-on-Demand Gene Expression Products (Applies Biosystems, Foster City, Calif.). The expression of eye field and photoreceptor precursor markers were analyzed at time points of 14 days to 8 weeks. At Time point 0 (TO), the derivation of SBs and the beginning of their culture in non-adherent culture dishes were initiated.
SBs were treated with combinations of NIC, bFGF, CHIR and IGF1 for 1 month. At the end of these culture periods, the expression of eye field and retinal progenitor markers (Rx, Six3, Six6, Chx10) and photoreceptor progenitor markers (NRL, CRX) was analyzed by Real-time PCR. […] FIG. 3 through FIG. 8 show graphs illustrating marker expression of Six3, Six6, Chx10, Rx, CRX, and NRL, respectively, in SBs cultured in NIC+bFGF or NIC+IGF or NIC+bFGF+CHIR for 4 weeks. Relative quantity of gene expression is plotted against different conditions. FIG. 9 through FIG. 14 show graphs illustrating marker expression of Six3, Six6, Chx10, Rx, CRX, and NRL, respectively, in SBs cultured in NIC+bFGF or NIC+bFGF+CHIR for 17 days. The control, HADC102, was comprised of undifferentiated HAD-C102 cells cultured for 6-7 days in […]® hPSC XF*Xeno-free medium for Human Pluripotent Stem Cells (Biological Industries).

NC(=O)c1cccnc1 [NIC, nicotinamide]
generation of photoreceptor cells from human pluripotent stem cells (evidenced by expression of markers of photoreceptor cells (RT-PCR)): sufficient to generate photoreceptor cells from human pluripotent stem cells

Laminin 521: laminin 521 (BioLamina) coating for feeder-free culture of hESCs before SB formation
expression of all the markers analyzed (Rx, Pax6, Six3, Six6, Chx10) (SBs from hESCs cultured on laminin 521 vs gelatin in cord feeder conditioned medium, NIH 5 weeks, FIG. 50-58): higher | efficiency of differentiation (initial culturing of hESC on laminin 521 vs gelatin in feeder cell conditioned medium): more efficient differentiation result

O=C(Nc1cccc2cccnc12)c1ccc(N2C(=O)[C@@H]3[C@H](C2=O)[C@@H]2C=C[C@H]3C2)cc1 [IWR1e, 4-[(3aR,4S,7R,7aS)-1,3,3a,4,7,7a-hexahydro-1,3-dioxo-4,7-metha-no-2H-isoindol-2-yl]-N-8-quinolinyl-benzamide]
expression of markers of hESC-derived photoreceptor progenitors (SBs cultured 20 days, Pax6, Six3, Rx, Six6, Chx10, FIG. 21-25): induced the expression of markers of hESC-derived photoreceptor progenitors | expression of the eye field and retinal progenitor markers Pax6, Rx, Six3, Six6 and Chx10 (compared among NIC+IWR1e, NIC, IWR1e, IWR1e+bFGF, FIG. 26-35): much lower
